Reference: patent publication US20090012144A1 (priority 2000, published 2009)

Experiments:
Tetranychus urticae = assay: Tetranychus test (OP-resistant/dip treatment); type: in vivo
Procedure: [table] To produce a suitable preparation of active compound, 1 part by weight of active compound is mixed with the stated amounts of solvent and emulsifier, and the concentrate is diluted with emulsifier-containing water to the desired concentration. Bean plants (Phaseolus vulgaris) which are heavily infested by all stages of the greenhouse […] spider mite (Tetranychus urticae) are dipped into the preparation of active compound of the desired concentration. After the desired period of time, the efficacy in % is determined. 100% means that all spider mites have been killed; 0% means that none of the spider mites have been killed.

[1] = test system: Amblyomma hebraeum nymphs; assay: Amblyomma hebraeum (EH) tick nymphs/dip treatment, determination of the ED50; type: in vivo; conditions: 1 min immersion, ecdysis rate after 4 weeks; not determinable = 50% not reached at 1000 ppm
Procedure: [table] 20 mg of active compound are dissolved in 1 ml of dimethyl sulphoxide. To prepare a suitable preparation, the solution of active compound is diluted with water to the concentration desired in each case. For the determination of the ED50 value, a dose-activity curve with the concentration spectrum 1000, 300, 100, 30, 10, 3, 1, 0.3, 0.1, 0.03, 0.01 ppm is prepared. 10 nymphs which have sucked themselves full are immersed for 1 min into the preparation of active compound to be tested. The animals are transferred to petri dishes (Ø 9.5 cm) fitted with filter paper discs and covered. After the nymphs have remained in a controlled-environment cabinet for 4 weeks, the ecdysis rate is determined. 100% means that none of the animals have undergone normal ecdysis. 0% means that all animals have undergone ecdysis. The data are calculated by a 4-parameter logistic curve fit using XLfit (ID Business Solutions Ltd.). If at 1000 ppm 50% mortality has not been reached, the ED50 is judged to be not determinable.

Heliothis armigera = Heliothis armigera test (soya bean shoots, dip); type: in vivo
Procedure: [table] To prepare a suitable preparation of active compound, 1 part by weight of active compound is mixed with the stated amounts of solvent and emulsifier, and the concentrate is diluted with emulsifier-containing water to the desired concentration. Soya bean shoots (Glycine max) are treated by being dipped into the preparation of active compound of the desired concentration and are populated with caterpillars of the cotton bollworm (Heliothis armigera) while the leaves are still moist. After the desired period of time, the kill in % is determined. 100% means that all caterpillars have been killed; 0% means that none of the caterpillars have been killed.

[2] = test system: Amblyomma hebraeum nymphs; assay: Amblyomma hebraeum (EH) polyphargous tick nymphs/dip treatment; type: in vivo; conditions: 10 ppm, 1 min immersion, after 4 weeks; 100% = no normal ecdysis
Procedure: [table] 20 mg of active compound are dissolved in 1 ml of dimethyl sulphoxide. To prepare a suitable formulation, the solution of active compound is diluted with water to the concentration desired in each case. 10 nymphs which have sucked themselves full are immersed for 1 min in the preparation of active compound to be tested. The animals are transferred to petri dishes (Ø 9.5 cm) fitted with filter paper discs and covered. After the nymphs have remained in a controlled-environment cabinet for 4 weeks, the ecdysis rate is determined. 100% means that none of the animals have undergone normal ecdysis. 0% means that all animals have undergone ecdysis.

Heliothis virescens = Heliothis virescens test (soya bean shoots, dip); type: in vivo
Procedure: [table] To prepare a suitable preparation of active compound, 1 part by weight of active compound is mixed with the stated amounts of solvent and emulsifier, and the concentrate is diluted with emulsifier-containing water to the desired concentration. Soya bean shoots (Glycine max) are treated by being dipped into the preparation of active compound of the desired concentration and are populated with Heliothis virescens caterpillars while the leaves are still moist. After the desired period of time, the kill in % is determined. 100% means that all caterpillars have been killed; 0% means that none of the caterpillars have been killed.

Spodoptera frugiperda = Spodoptera frugiperda test (cabbage leaves, dip); type: in vivo
Procedure: [table] To produce a suitable preparation of active compound, 1 part by weight of active compound is mixed with the stated amounts of solvent and emulsifier, and the concentrate is diluted with emulsifier-containing water to the desired concentration. Cabbage leaves (Brassica oleracea) are treated by being dipped into the preparation of active compound of the desired concentration and are populated with caterpillars of the army worm (Spodoptera frugiperda) while the leaves are still moist. After the desired period of time, the kill in % is determined. 100% means that all caterpillars have been killed; 0% means that none of the caterpillars have been killed.

[3] = log P determination by HPLC (reversed-phase C 18), EEC Directive 79/831 Annex V.A8; type: physicochemical; conditions: HPLC, pH 2.3, 43° C.; read-out: log P (pH 2.3)
Procedure: The log P values given in the tables and Preparation Examples above are determined in accordance with EEC Directive 79/831 Annex V.A8 by HPLC (High Performance Liquid Chromatography) using a reversed-phase column (C 18). Temperature: 43° C. […]
Calibration was carried out using unbranched alkan-2-ones (having 3 to 16 carbon atoms) with known log P values (determination of the log P values by the retention times using linear interpolation between two successive […]).

Fc1cccc(F)c1C1=N[C@H](c2ccc(-c3ccc(OC(F)(F)F)cc3)cc2)CC1 [drawing 101, reference compound]
Kill rate in % after 7 d (Tetranychus urticae; 0.0128 ppm): 0%

CCOc1cc(C(C)(C)C)ccc1[C@@H]1CCC(c2c(F)cccc2F)=N1 [drawing 111]
ED 50 (ppm) [1]: notdeterminable

CCOc1cc(C(C)(C)C)ccc1[C@H]1CCC(c2c(F)cccc2F)=N1 [drawing 110]
ED 50 (ppm) [1]: 0.14 ppm

Fc1cccc(F)c1C1=N[C@@H](c2ccc(-c3ccc(SC(F)(F)F)cc3)cc2)CC1 [drawing 61]
Kill rate in % after 6 d (Heliothis armigera; 1.6 ppm): 100%

FC(F)=C(F)Oc1ccc(-c2ccc([C@H]3CCC(c4c(F)cccc4F)=N3)cc2)cc1
Kill rate in % after 7 d (Tetranychus urticae; 0.01 ppm): 98%

Fc1cccc(F)c1C1=N[C@@H](c2ccc(-c3ccc(OC(F)(F)F)cc3)cc2)CC1 [drawing 107]
Effects on ecdysis in % [2]: 100%

Fc1cccc(F)c1C1=N[C@H](c2ccc(-c3ccc(OC(F)(F)F)cc3)cc2)CC1 [drawing 114]
ED 50 (ppm) [1]: 549.86 ppm

Fc1cccc(F)c1C1=NC(c2ccc(-c3ccc(OC(F)(F)F)cc3)cc2)CC1 (stereo not drawn) [drawing 106]
Effects on ecdysis in % [2]: 100%

Fc1cccc(F)c1C1=N[C@@H](c2ccc(-c3ccc(SC(F)(F)F)cc3)cc2)CC1 [drawing 66]
Kill rate in % after 6 d (Heliothis virescens; 1.6 ppm): 100%

Fc1cccc(F)c1C1=NC(c2ccc(-c3ccc(OC(F)(F)F)cc3)cc2)CC1 (stereo not drawn) [drawing 63]
Kill rate in % after 6 d (Heliothis virescens; 0.32 ppm): 20%

Fc1cccc(F)c1C1=N[C@H](c2ccc(-c3ccc(SC(F)(F)F)cc3)cc2)CC1 [drawing 62, reference compound]
Kill rate in % after 6 d (Heliothis armigera; 1.6 ppm): 0%

CCOc1cc(C(C)(C)C)ccc1[C@@H]1CCC(c2c(F)cccc2F)=N1 [drawing 105]
Effects on ecdysis in % [2]: 0%

CCOc1cc(C(C)(C)C)ccc1[C@@H]1CCC(c2c(F)cccc2F)=N1 [drawing 99, reference compound]
Kill rate in % after 7 d (Tetranychus urticae; 8 ppm): 0%

CCOc1cc(C(C)(C)C)ccc1C1CCC(c2c(F)cccc2F)=N1 (stereo not drawn) [drawing 109]
ED 50 (ppm) [1]: 0.27 ppm

Fc1cccc(F)c1C1=N[C@@H](c2ccc(-c3ccc(OC(F)(F)F)cc3)cc2)CC1 [drawing 100]
Kill rate in % after 7 d (Tetranychus urticae; 0.0128 ppm): 95%

Fc1cccc(F)c1C1=N[C@@H](c2ccc(-c3ccc(OC(F)(F)F)cc3)cc2)CC1 [drawing 64]
Kill rate in % after 6 d (Heliothis virescens; 0.32 ppm): 90%

CCOc1cc(C(C)(C)C)ccc1[C@H]1CCC(c2c(F)cccc2F)=N1 [drawing 104]
Effects on ecdysis in % [2]: 100%

CCOc1cc(C(C)(C)C)ccc1[C@H]1CCC(c2c(F)cccc2F)=N1 [drawing 98]
Kill rate in % after 7 d (Tetranychus urticae; 0.32 ppm): 90%

Fc1cccc(F)c1C1=N[C@@H](c2ccc(-c3ccc(OC(F)(F)F)cc3)cc2)CC1 [drawing 113]
ED 50 (ppm) [1]: 0.20 ppm

Fc1cccc(F)c1C1=N[C@@H](c2ccc(-c3ccc(OC(F)(F)F)cc3)cc2)CC1 [drawing 59]
Kill rate in % after 6 d (Heliothis armigera; 8 ppm): 100%

Fc1cccc(F)c1C1=N[C@@H](c2ccc(-c3ccc(SC(F)(F)F)cc3)cc2)CC1 [drawing 92]
Kill rate in % after 6 d (Spodoptera frugiperda; 0.0128 ppm): 65%

Fc1cccc(F)c1C1=N[C@H](c2ccc(-c3ccc(SC(F)(F)F)cc3)cc2)CC1 [drawing 93]
Kill rate in % after 6 d (Spodoptera frugiperda; 1.6 ppm): 10%

CCOc1cc(C(C)(C)C)ccc1C1CCC(c2c(F)cccc2F)=N1 (stereo not drawn) [drawing 103]
Effects on ecdysis in % [2]: 100%

Fc1cccc(F)c1C1=NC(c2ccc(-c3ccc(OC(F)(F)F)cc3)cc2)CC1 (stereo not drawn) [drawing 112]
ED 50 (ppm) [1]: 0.58 ppm

OC1([C@H]2CCC(c3c(F)cccc3F)=N2)C=CC(c2ccccc2)=CC1 (stereo partly drawn) [I-9, 4′-[(2R)-5-(2,6-difluorophenyl)-3,4-dihydro-2H-pyrrol-2-yl]-1,1′-biphenyl-4′-ol]
melting point: 217 °C

Fc1cccc(F)c1C1=NC(c2ccc(-c3ccc(OC(F)(F)F)cc3)cc2)CC1 (stereo not drawn) [drawing 88]
Kill rate in % after 6 d (Spodoptera frugiperda; 0.02 ppm): 25%

[O-][S+](c1ccc(-c2ccc([C@H]3CCC(c4c(F)cccc4F)=N3)cc2)cc1)C(F)(F)F (stereo partly drawn) [I-10]
melting point: 146 to 148 °C

CCOc1cc(C(C)(C)C)ccc1C1CCC(c2c(F)cccc2F)=N1 (stereo not drawn) [drawing 97, reference compound]
Kill rate in % after 7 d (Tetranychus urticae; 0.32 ppm): 0%

Fc1cccc(F)c1C1=N[C@H](c2ccc(-c3ccc(OC(F)(F)F)cc3)cc2)CC1 [drawing 65]
Kill rate in % after 6 d (Heliothis virescens; 8 ppm): 0%

Fc1cccc(F)c1C1=N[C@H](c2ccc(-c3ccc(SC(F)(F)F)cc3)cc2)CC1 [drawing 67]
Kill rate in % after 6 d (Heliothis virescens; 1.6 ppm): 15%

Fc1cccc(F)c1C1=N[C@@H](c2ccc(-c3ccc(OC(F)(F)F)cc3)cc2)CC1 [drawing 89]
Kill rate in % after 6 d (Spodoptera frugiperda; 0.02 ppm): 100%

Fc1cccc(F)c1C1=N[C@H](c2ccc(-c3ccc(OC(F)(F)F)cc3)cc2)CC1 [drawing 108]
Effects on ecdysis in % [2]: 0%

Fc1cccc(F)c1C1=N[C@H](c2ccc(-c3ccc(OC(F)(F)F)cc3)cc2)CC1 [drawing 60, reference compound]
Kill rate in % after 6 d (Heliothis armigera; 8 ppm): 0%

CC(C)(C)[Si](C)(C)Oc1ccc(-c2ccc([C@H]3CCC(c4c(F)cccc4F)=N3)cc2)cc1 [I-8, (2R)-2-(4′-{[tert-butyl(dimethyl)silyl]oxy}-1,1′-biphenyl-4-yl)-5-(2,6-difluorophenyl)-3,4-dihydro-2H-pyrrole]
melting point: 33 °C | chromatographic logP [3]: 6.2

O=S(=O)(c1ccc(-c2ccc([C@H]3CCC(c4c(F)cccc4F)=N3)cc2)cc1)C(F)F [I-14]
melting point: 148 to 150 °C
